Assay results reported in patent publication US8586597B2, “6-fluoro-3-phenyl-2-[1-(9H-purin-6-ylamino)ethyl]-3H-quinazolin-4-one as an inhibitor of human phosphatidylinositol 3-kinase delta” (ICOS Corporation, priority 2004, dated 2013).
One block for each molecule: values may come before it.

Assays:
PI3Kγ = PI3Kγ (Homo sapiens (Human), UniProt P48736); experiment: Biochemical assay of PI3K selectivity (PI3Kγ); conditions: ratio of IC50 for PI3Kγ relative to PI3Kδ
Source text: p110γ: The p110γ cDNA (see Stoyanov et al., Science, 269:690-93 (1995)) was amplified from a human Marathon Ready spleen cDNA library (Clontech) according to the manufacturer's protocol using the following primers: […]
Recombinant baculoviruses containing the above clones were generated using manufacturer's recommended protocol (Life Technologies). Baculoviruses expressing His-tagged p110α, p110β, or p110δ catalytic subunit and p85 subunit were coinfected into Sf21 insect cells. To enrich the heterodimeric enzyme complex, an excess amount of baculovirus expressing p85 subunit was infected, and the His-tagged p110 catalytic subunit complexed with p85 was purified on nickel affinity column. […] In an alternate approach, p101 can be cloned into baculovirus, to permit coexpression with its preferred binding partner p110γ.
(§1) Biochemical Assay using 20 μM ATP
(§2) Using the method described in Example 2, compounds of the invention were tested for inhibitory activity and potency against PI3Kδ, and for selectivity for PI3Kδ versus other Class I PI3K isozymes. In Table 1, IC50 values (μM) are given for PI3Kδ (“Delta”), and may be calculated for the other isoforms using the ratios of IC50 values discussed below. To illustrate selectivity of the compounds, the ratios of the IC50 values of the compounds for PI3Kα, PI3Kβ, and PI3Kγ relative to PI3Kδ are given, respectively, as “Alpha/Delta Ratio,” “Beta/Delta Ratio,” and “Gamma/Delta Ratio.”
(§3) The initial selectivity assays were performed identically to the selectivity assay protocol in Example 2, except using 100 μL Ecoscint for radiolabel detection.
(§4) Subsequent selectivity assays were done similarly using the same 3× substrate stocks except they contained 0.05 mCi/mL γ[^32P]ATP and 3 mM PIP2. Subsequent selectivity assays also used the same 3× enzyme stocks, except they now contained 3 nM of any given PI3K isoform.
(§5) For all selectivity assays, the test compounds were weighed out and dissolved into 10-50 mM stocks in 100% DMSO (depending on their respective solubilities) and stored at −20° C. Compounds were thawed (to room temperature or 37° C.), diluted to 300 μM in water from which a 3-fold dilution series into water was done. From these dilutions, 20 μL was added into the assay wells alongside water blanks used for the enzyme (positive) control and the no enzyme (background) control. The remainder of the assay was performed essentially according to the selectivity assay protocol in Example 2.

PI3Kδ = PI3Kδ (Homo sapiens (Human), UniProt O00329); experiment: Biochemical assay of PI3K potency using 20 μM ATP (PI3Kδ); conditions: read-out: Delta IC50
Source text: (§6) Recombinant PI3K heterodimeric complexes consisting of a p110 catalytic subunit and a p85 regulatory subunit were overexpressed using the BAC-TO-BAC® HT baculovirus expression system (GIBCO/BRL), and then purified for use in biochemical assays. The four Class I PI 3-kinases were cloned into baculovirus vectors as follows:
p110δ: A FLAG®-tagged version of human p110δ (SEQ ID NOS: 1 and 2) (see Chantry et al., J. Biol. Chem., 272:19236-41 (1997)) was subcloned using standard recombinant DNA techniques into the BamH1-Xba1 site of the insect cell expression vector pFastbac HTb (Life Technologies, Gaithersburg, Md.), such that the clone was in frame with the His tag of the vector. The FLAG® system is described in U.S. Pat. Nos. 4,703,004; 4,782,137; 4,851,341; and 5,011,912, and reagents are available from Eastman Kodak Co.
as §1
Using the method described in Example 2, compounds of the invention were tested for inhibitory activity and potency against PI3Kδ, and for selectivity for PI3Kδ versus other Class I PI3K isozymes.
as §3, §4, §5

PI3Kβ = PI3Kβ (Homo sapiens (Human), UniProt P42338); experiment: Biochemical assay of PI3K selectivity (PI3Kβ); conditions: ratio of IC50 for PI3Kβ relative to PI3Kδ
Source text: as §6
p110β: A p110β (see Hu et al., Mol. Cell. Biol., 13:7677-88 (1993)) clone was amplified from the human MARATHON® Ready spleen cDNA library (Clontech, Palo Alto Calif.) according to the manufacturer's protocol using the following primers: […]
as §1, §2, §3, §4, §5

human neutrophils (PMN) = experiment: Neutrophil (PMN) elastase release (fMLP-induced elastase exocytosis); format: cell-based
Method: Aliquots (8 mL) of heparinized blood from healthy volunteers are layered on 3 mL cushions of 7.3% FICOLL® (Sigma, St. Louis, Mo.) and 15.4% HYPAQUE® (Sigma) and centrifuged at 900 rpm for 30 min at room temperature in a table top centrifuge (Beckman). The neutrophil-rich band just above the FICOLL®-HYPAQUE® cushion is collected and washed with Hanks' balanced salt solution (HESS) containing 0.1% gelatin. Residual erythrocytes are removed by, hypotonic lysis with 0.2% NaCl. The neutrophil preparation is washed twice with HESS containing 0.1% gelatin and used immediately.
In addition to superoxide generation, activated neutrophils also respond by releasing several proteases that are responsible for the destruction of tissues and cartilage during inflammation. As an indication of protease release, the effect of present compound on elastase exocytosis is measured. Elastase exocytosis is quantitated by modification of the procedure described by Ossanna et al. (J. Clin. Invest., 77:1939-51 (1986)), as follows. Purified human neutrophils (0.2×10^6) (treated with either DMSO or a serial dilution of a present compound in DMSO) are stimulated with fMLP in PBS containing 0.01 mg/mL cytochalasin B, 1.0 μM sodium azide (NaN3), 5 μg/mL L-methionine and 1 μM fMLP for 90 min at 37° C. in a 96-well plate. At the end of the incubation period, the plate is centrifuged for 5 min at 1000 rpm, and 90 μL of the supernatant is transferred to 10 μL of 10 mM solution of an elastase substrate peptide, MeO-suc-Ala-Ala-Pro-Val-pNA, wherein MeO-suc=methoxy-succinyl; pNA=p-nitroanilide (Calbiochem, San Diego, Calif.). Absorbance at 410 nm is monitored for 2 hr in a 96-well plate reader. To measure the relative amounts of elastase excytosed, all absorbance values are normalized to the values without any inhibitor.
Using the methods described in Example 2, compounds of the invention were tested for inhibitory activity and potency in an assay of neutrophil (PMN) elastase release. In Table 1, the values shown are effective concentrations of the compound (EC50; μM).

PI3Kα = PI3Kα (Homo sapiens (Human), UniProt P42336); experiment: Biochemical assay of PI3K selectivity (PI3Kα); conditions: ratio of IC50 for PI3Kα relative to PI3Kδ
Source text: as §6
p110α: Similar to the method used for p110δ, described above, a FLAG®-tagged version of p110α (see Volinia et al., Genomics, 24(3):427-77 (1994)) was subcloned in BamH1-HindIII sites of pFastbac HTb (Life Technologies) such that the clone was in frame with the His tag of the vector.
as §1, §2, §3, §4, §5

Human B Lymphocyte = experiment: Human B lymphocyte assay; format: cell-based
Method: Heparinized blood (200 mL) from healthy volunteers is mixed with an equal volume of D-PBS, layered on 10×10 mL FICOLL-PAQUE® (Pharmacia), and centrifuged at 1600 rpm for 30 min at room temperature. Peripheral blood mononuclear cells (PBMC) are collected from the FICOLL®/serum interface, overlayed on 10 mL fetal bovine serum (FBS) and centrifuged at 800 rpm for 10 min to remove platelets. After washing, cells are incubated with DYNAL® Antibody Mix (B cell kit) (Dynal Corp., Lake Success, N.Y.) for 20 min at 4-8° C. Following the removal of unbound antibody, PBL are mixed with anti-mouse IgG coated magnetic beads (Dynal) for 20 min at 4-8° C. with gentle shaking followed by elimination of labeled non-B cells on the magnetic bead separator. This procedure is repeated once more. The B cells are resuspended in RPMI-1640 with 10% FBS, and kept on ice until further use.
To study antibody production, B cells are aliquoted at 50−75×10^3 cells/well into 96-well plate with or without inhibitor, to which IL-2 (100 U/mL) and PANSORBIN® (Calbiochem) Staphylococcus aureus cells (1:90,000) were added. Part of the media is removed after 24-36 hr, and fresh media (with or without inhibitor) and IL-2 is added. Cultures are incubated at 37° C., in the presence of a CO2 incubator for additional 7 days. Samples from each condition (in triplicate) are removed, and analyzed for IgG and IgM, as measured by ELISA. Briefly, IMMULON® 4 96-well plates are coated (50 μL/well) with either 150 ng/mL donkey antihuman IgG (H+L) (Jackson ImmunoResearch, West Grove Pa.), or 2 μg/mL donkey antihuman IgG+IgM (H+L) (Jackson ImmunoResearch) in bicarbonate buffer, and left overnight at 4° C. After washing three times with phosphate buffered saline containing 0.1% TWEEN®-80 (PBST) (350 μL/well), and blocking with 3% goat serum in PEST (100 μL/well) for 1 hr at room temperature, samples (100 μL/well) of B cell spent media diluted in PBST are added. […] Color development is stopped by H2SOa solution, and plates were read on an ELISA plate reader.

basophils = experiment: Basophil histamine release assay; format: cell-based; conditions: highest concentration, 10,000 nM
Method: Assessment of the effect of a compound of the invention on basophil function is tested using a conventional histamine release assay, generally in accordance with the method described in Miura et al., J. Immunol., 162:4198-206 (1999). Briefly, enriched basophils are preincubated with test compounds at several concentrations from 0.1 nM to 1,000 nM for 10 min at 37° C. Then, polyclonal goat antihuman IgE (0.1 μg/mL) or fMLP is added, and allowed to incubate for an additional 30 min. Histamine released into the supernatant is measured using an automated fluorometric technique.

PI3Kγ, sequence (P48736 whole entry): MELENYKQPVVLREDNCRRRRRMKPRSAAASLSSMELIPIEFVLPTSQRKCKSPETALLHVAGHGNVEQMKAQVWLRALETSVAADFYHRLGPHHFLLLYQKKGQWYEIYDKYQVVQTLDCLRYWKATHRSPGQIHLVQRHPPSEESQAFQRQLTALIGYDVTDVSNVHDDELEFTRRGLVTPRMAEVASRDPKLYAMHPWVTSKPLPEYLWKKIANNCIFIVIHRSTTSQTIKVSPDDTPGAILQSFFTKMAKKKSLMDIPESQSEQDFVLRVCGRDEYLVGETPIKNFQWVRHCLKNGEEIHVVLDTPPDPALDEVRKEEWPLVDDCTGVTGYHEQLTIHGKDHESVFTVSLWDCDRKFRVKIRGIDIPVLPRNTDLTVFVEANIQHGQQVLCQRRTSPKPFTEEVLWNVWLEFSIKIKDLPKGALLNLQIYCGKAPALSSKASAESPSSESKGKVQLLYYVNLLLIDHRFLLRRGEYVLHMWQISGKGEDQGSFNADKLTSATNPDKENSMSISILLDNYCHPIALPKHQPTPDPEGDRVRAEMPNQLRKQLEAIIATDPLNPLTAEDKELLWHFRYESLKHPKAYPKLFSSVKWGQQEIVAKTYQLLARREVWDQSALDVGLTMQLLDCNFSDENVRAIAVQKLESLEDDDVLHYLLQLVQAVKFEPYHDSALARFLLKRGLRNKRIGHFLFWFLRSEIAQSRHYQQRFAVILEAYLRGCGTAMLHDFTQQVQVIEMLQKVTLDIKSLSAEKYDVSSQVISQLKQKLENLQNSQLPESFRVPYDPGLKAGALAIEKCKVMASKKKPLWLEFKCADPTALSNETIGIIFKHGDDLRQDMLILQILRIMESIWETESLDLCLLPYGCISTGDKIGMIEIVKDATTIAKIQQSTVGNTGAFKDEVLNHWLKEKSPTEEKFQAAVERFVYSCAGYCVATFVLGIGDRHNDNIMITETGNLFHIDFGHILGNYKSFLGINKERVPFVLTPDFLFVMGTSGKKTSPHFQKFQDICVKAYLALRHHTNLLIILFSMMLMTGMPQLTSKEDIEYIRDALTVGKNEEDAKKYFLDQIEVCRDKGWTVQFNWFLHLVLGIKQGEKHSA
PI3Kα, sequence (P42336 whole entry): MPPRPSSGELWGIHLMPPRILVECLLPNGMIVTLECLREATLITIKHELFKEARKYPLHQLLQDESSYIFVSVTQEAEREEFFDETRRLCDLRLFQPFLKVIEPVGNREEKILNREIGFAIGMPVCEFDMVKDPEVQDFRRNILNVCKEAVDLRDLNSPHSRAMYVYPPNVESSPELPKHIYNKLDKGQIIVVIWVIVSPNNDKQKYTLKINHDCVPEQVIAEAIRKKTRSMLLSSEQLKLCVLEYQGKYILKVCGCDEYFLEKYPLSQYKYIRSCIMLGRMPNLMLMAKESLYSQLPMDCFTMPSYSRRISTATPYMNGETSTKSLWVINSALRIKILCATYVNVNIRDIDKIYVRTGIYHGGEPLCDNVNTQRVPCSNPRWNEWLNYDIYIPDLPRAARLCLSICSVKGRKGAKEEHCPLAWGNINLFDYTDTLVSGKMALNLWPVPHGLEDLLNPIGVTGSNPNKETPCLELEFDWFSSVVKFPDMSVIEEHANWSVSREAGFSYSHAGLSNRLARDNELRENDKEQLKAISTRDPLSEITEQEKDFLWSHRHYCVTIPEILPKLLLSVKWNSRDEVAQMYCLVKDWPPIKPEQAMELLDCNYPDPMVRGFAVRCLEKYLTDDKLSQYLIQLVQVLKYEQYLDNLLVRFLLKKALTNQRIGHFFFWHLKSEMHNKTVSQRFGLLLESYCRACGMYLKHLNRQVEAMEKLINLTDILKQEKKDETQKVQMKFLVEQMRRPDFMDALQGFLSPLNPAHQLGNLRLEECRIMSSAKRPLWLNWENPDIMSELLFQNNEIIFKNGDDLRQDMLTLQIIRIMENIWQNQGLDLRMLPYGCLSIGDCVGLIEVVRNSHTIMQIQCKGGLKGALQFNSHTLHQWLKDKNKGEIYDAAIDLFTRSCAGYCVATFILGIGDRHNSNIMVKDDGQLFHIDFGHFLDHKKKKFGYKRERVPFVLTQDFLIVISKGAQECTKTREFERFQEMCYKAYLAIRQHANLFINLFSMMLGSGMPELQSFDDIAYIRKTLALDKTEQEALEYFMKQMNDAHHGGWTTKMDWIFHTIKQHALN
PI3Kα, sequence (P27986 whole entry partner): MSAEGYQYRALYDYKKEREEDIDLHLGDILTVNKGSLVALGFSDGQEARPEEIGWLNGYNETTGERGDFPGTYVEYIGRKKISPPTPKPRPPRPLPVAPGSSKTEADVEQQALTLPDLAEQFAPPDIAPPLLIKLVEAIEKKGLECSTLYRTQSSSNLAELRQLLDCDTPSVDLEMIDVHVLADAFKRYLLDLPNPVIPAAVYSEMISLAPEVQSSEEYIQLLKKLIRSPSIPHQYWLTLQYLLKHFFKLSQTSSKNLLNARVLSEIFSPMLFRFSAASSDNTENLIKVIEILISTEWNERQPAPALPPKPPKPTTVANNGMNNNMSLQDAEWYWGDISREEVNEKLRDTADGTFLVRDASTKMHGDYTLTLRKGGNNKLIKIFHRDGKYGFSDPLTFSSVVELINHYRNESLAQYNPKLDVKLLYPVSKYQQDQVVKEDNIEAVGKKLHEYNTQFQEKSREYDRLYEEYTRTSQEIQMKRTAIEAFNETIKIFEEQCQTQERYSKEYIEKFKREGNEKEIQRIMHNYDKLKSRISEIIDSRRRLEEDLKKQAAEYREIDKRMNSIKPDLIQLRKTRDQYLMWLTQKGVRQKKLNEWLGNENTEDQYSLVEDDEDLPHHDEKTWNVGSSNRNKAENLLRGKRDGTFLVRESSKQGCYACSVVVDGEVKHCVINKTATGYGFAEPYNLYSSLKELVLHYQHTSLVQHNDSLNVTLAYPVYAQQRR
PI3Kδ, sequence (O00329 whole entry S253N): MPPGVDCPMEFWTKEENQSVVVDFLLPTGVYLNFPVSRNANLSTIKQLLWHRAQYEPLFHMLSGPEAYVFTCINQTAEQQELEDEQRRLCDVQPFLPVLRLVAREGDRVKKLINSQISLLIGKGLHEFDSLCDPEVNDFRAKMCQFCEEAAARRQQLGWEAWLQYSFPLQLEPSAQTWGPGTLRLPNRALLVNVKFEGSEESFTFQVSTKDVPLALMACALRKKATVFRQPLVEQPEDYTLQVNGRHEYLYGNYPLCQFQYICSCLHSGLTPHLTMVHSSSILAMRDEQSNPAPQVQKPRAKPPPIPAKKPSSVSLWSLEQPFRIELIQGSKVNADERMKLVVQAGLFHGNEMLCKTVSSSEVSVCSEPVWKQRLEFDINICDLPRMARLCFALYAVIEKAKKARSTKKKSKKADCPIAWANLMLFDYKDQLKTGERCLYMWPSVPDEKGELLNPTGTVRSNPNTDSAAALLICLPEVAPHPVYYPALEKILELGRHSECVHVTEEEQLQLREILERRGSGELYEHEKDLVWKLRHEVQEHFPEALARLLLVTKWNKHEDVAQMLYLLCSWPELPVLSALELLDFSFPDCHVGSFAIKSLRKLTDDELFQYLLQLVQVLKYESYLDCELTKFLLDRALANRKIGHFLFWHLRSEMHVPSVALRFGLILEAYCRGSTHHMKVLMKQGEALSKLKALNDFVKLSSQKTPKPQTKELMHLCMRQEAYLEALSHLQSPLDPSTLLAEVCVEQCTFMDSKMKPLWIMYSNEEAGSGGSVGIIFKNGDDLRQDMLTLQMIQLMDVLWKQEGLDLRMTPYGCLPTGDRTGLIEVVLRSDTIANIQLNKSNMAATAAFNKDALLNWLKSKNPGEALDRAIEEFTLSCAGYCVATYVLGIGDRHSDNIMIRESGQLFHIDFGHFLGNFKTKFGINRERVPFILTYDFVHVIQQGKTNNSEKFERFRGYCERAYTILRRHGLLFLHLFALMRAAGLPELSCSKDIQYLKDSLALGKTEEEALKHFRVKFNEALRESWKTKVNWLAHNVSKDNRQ
PI3Kδ, sequence (P27986 whole entry partner): as the sequence (P27986 whole entry partner) above
PI3Kβ, sequence (P42338 2-1070): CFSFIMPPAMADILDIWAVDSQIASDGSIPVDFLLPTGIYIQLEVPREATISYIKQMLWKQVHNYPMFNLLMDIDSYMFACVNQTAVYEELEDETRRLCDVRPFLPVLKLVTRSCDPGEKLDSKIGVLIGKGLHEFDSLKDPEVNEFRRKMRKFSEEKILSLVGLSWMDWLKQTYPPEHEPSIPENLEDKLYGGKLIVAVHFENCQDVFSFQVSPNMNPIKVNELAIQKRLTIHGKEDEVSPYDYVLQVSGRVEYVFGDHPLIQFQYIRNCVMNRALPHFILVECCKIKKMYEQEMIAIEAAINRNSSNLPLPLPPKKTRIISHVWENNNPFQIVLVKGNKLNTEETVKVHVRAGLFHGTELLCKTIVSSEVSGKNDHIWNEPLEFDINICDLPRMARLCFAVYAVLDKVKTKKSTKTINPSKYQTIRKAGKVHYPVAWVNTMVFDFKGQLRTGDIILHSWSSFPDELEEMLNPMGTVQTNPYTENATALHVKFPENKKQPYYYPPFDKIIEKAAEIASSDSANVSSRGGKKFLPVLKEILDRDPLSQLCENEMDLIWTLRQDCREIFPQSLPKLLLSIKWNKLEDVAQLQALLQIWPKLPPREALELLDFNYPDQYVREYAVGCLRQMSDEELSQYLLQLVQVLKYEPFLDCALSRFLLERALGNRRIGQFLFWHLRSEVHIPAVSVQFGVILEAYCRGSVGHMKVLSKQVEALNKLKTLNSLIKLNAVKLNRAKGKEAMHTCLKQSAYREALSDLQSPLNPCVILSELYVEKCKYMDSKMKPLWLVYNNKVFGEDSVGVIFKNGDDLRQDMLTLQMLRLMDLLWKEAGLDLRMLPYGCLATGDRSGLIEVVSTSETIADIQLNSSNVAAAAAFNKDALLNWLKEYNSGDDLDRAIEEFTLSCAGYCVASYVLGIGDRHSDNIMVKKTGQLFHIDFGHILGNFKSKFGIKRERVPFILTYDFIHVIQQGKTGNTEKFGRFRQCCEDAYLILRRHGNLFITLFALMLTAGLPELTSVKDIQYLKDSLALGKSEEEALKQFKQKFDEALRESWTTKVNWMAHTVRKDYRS
PI3Kβ, sequence (P27986 whole entry partner): as the sequence (P27986 whole entry partner) above

Gamma-Delta Ratio (PI3Kγ): 62
IC50 (PI3Kδ): 26 nM
Beta-Delta Ratio (PI3Kβ): 94
EC50 (human neutrophils (PMN)): 584 nM
Alpha-Delta Ratio (PI3Kα): 721
SMILES: CCC(Nc1ncnc2[nH]cnc12)c1nc2cccc(C)c2c(=O)n1-c1cc(F)cc(F)c1 (stereo not drawn) [Compound 93, 3-(3,5-difluoro-phenyl)-5-methyl-2-[1-(9H-purin-6-ylamino)-propyl]-3H-quinazolin-4-one]

Gamma-Delta Ratio (PI3Kγ): 66
IC50 (PI3Kδ): 16 nM
EC50 (Human B Lymphocyte): 4.6 nM
Beta-Delta Ratio (PI3Kβ): 74
EC50 (human neutrophils (PMN)): 84 nM
Alpha-Delta Ratio (PI3Kα): 608
SMILES: CCC(Nc1ncnc2[nH]cnc12)c1nc2ccccc2c(=O)n1-c1ccccc1 (stereo not drawn) [Compound 98, 3-phenyl-2-[1-(9H-purin-6-ylamino)-propyl]-3H-quinazolin-4-one]

Gamma-Delta Ratio (PI3Kγ): 38
IC50 (PI3Kδ): 45 nM
EC50 (Human B Lymphocyte): 30.7 nM
Beta-Delta Ratio (PI3Kβ): 72
EC50 (human neutrophils (PMN)): 298 nM
Alpha-Delta Ratio (PI3Kα): 250
SMILES: CCC(Nc1ncnc2[nH]cnc12)c1nc2cccc(Cl)c2c(=O)n1-c1c(F)cccc1F (stereo not drawn) [Compound 174, 5-chloro-3-(2,6-difluoro-phenyl)-2-[1-(9H-purin-6-ylamino)-propyl]-3H-quinazolin-4-one]

Second part, the molecule before the results:

SMILES: CC[C@H](Nc1ncnc2[nH]cnc12)c1nc2cccc(Cl)c2c(=O)n1-c1cc(F)cc(F)c1 [Compound 117, (S)-5-chloro-3-(3,5-difluoro-phenyl)-2-[1-(9H-purin-6-ylamino)-propyl]-3H-quinazolin-4-one]
Gamma-Delta Ratio (PI3Kγ): 67
IC50 (PI3Kδ): 12 nM
EC50 (Human B Lymphocyte): 1.6 nM
Beta-Delta Ratio (PI3Kβ): 78
EC50 (human neutrophils (PMN)): 382 nM
Alpha-Delta Ratio (PI3Kα): 662

SMILES: O=c1cc(N2CCOCC2)oc2c(-c3ccccc3)cccc12 [LY294002]
inhibition at 10 µM (basophils): ~100%
